Experimental findings from patent publication US10526327B2, “Histone demethylase inhibitors” (CELGENE QUANTICEL RESEARCH, INC., priority 2013, dated 2020) are described below.

Molecules are shown by their SMILES. Some results are limits rather than exact numbers.

One assay addresses T1, Jarid1A (Homo sapiens, UniProt P29375).
T1 construct: purchased BPS Bioscience 50110
T1 sequence (P29375 1-1090): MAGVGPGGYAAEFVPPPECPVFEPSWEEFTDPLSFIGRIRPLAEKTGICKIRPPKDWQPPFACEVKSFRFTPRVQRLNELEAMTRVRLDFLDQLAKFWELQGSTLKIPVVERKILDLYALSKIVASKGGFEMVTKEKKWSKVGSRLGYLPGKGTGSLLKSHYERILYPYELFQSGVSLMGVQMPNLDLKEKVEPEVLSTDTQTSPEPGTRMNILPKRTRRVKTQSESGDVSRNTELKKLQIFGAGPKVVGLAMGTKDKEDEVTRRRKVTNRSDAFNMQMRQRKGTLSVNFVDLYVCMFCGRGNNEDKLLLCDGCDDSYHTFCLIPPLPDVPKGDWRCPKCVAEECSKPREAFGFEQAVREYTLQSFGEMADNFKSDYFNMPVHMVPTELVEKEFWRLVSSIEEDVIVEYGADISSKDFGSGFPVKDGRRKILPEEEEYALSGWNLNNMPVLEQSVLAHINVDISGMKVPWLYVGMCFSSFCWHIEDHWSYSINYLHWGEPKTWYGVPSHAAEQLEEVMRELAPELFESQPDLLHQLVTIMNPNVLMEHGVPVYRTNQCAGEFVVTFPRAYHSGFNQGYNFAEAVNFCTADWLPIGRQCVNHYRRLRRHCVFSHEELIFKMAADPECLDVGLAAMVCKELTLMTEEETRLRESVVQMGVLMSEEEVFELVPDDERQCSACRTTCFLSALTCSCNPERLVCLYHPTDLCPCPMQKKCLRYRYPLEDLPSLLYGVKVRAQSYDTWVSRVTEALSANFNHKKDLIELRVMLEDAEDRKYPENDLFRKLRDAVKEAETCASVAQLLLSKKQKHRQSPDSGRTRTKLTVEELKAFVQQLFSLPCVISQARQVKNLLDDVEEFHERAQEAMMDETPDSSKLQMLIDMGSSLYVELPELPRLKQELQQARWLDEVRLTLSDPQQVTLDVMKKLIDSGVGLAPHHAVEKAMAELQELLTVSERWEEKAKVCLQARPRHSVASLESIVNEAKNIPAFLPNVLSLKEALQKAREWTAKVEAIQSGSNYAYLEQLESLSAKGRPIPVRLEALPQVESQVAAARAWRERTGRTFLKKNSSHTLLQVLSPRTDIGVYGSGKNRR
The assay can be described thus: Jarid1A in vitro enzyme inhibition assay (TR-FRET). Format: biochemical. In outline:
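Demethylation of 300 nM biotin-H3K4me3 peptide by 1 nM baculovirus-expressed Jarid1A (aa 1–1090) with 2 μM α-ketoglutarate, Fe(II) and ascorbate, pH 7.3, 30 min at room temperature. Stopped with EDTA; H3K4me1-2 product detected by TR-FRET (Eu anti-H3K4me1-2/streptavidin-APC). IC50 fitted from 665/615 ratio over 11-point dilutions.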

Another assay relates to KDM5A/B. The experiment in a line: In vitro cell-based assay: immuno-blot quantification of tri-methyl H3K4 in ZR-75-1 breast cancer cells. Particulars: 72 hours, tri-methyl H3K4 level relative to GAPDH, percent of DMSO, read-out: Cellular IC50. The source says:
An assay to measure the degree of cellular inhibition of KDM5A and 5B was developed. This quantitative immuno-blotting assay measures the amount tri-methylated histone H3 at amino acid Lysine number 4, a specific substrate […] of the direct enzymatic activity of the histone demethylases KDM5A and KDM5B from extracts of the ZR-75-1 breast cancer cell line.
This assay is a fluorometric immunoassay for the quantification of tri-methyl H3K4 extracted from cells treated with test compound and is used as a measure of the cellular inhibition of KDM5A/B.
ZR-75-1 (PTEN null, ER+) breast cancer cells numbering 50,000 (ATCC) were seeded into each well of a 96-well tissue culture treated plate and then exposed to an 11 point dilution of test compound with final concentration ranges of test compound ranging from 1250 μM to 10 nM. Cells were left in the presence of test compound for 72 hours. Extracts were prepared containing all of the cellular histone material using detergent based lysis and sonication methods. These lysates were subsequently normalized for total protein content using a colorimetric bicinchonic acid assay (MicroBCA Pierce/Thermo Scientific). Normalized cell extracts were then subjected to typical immuno-blotting procedures using NuPage reagents (Life Technologies). Electrophoretically separated histones were then transferred and immobilized using polyvinylidene difluoride membrane (Immobilon-FL Millipore). The amount of tri-methylated lysine 4 of histone H3 was detected using an antibody specific to the tri-methylated state (Cell Signaling Technologies) and quantified on an infrared imager using a densitometry software package (Odyssey CLx, Image Studio, Li-Cor). This background subtracted densitometry value was reported as a ration of the GAPDH amount for that sample and then calculated as a percent of the DMSO treated sample. The software package XL-fit (IDBS) was then used to calculate a relative IC50 value for the dilution series of a given test compound according to the equation: fit=(D+((Vmax*(x^n))/((x^n)+(Km^n)))).

For orientation: IC50 means the concentration needed to halve the response being measured. `Oc1nc(Oc2cnn(C3CCNCC3)c2)nc2cnccc12` [Example 89, 2-(1-piperidin-4-ylpyrazol-4-yl)oxypyrido[3,4-d]pyrimidin-4-ol]: the IC50 at Jarid1A is not above 100 nM; with KDM5A/B it was 1000 to 10000 nM.
